Assay results: US11116757B2 (priority 2015, dated 2021)
≈ marks a conversion by molar mass, not a printed value. Entries after “also recorded” stand apart in the source; their conditions may differ. Where two headings read alike, the source gives them in different places.

Tests used:
[1] = type: in vitro ADME; conditions: Table 10
Description: Test compound stock (10 mM in DMSO, 3 μL) was mixed with citrate phosphate buffered saline (597 μL) to make diluted test compound. Diluted test compound (150 μL) was transferred to a UV plate (pION Inc., Woburn, Mass.) and the UV spectrum (250 nm-500 nm) was read as the reference plate. Each well of the donor plate in a PAMPA sandwich plate (pION Inc., Woburn, Mass.) contained a filter that was painted on one side with 4 μL GIT lipid (pION Inc., Woburn, Mass.) to form a membrane. Each well in the acceptor plate in a PAMPA sandwich, preloaded with magnetic stir bars, was filled with acceptor solution buffer (200 pION Inc., Woburn, Mass.). The donor plate was filled with diluted test compound (180 The PAMPA sandwich was assembled by placing the donor plate over the acceptor plate. The combined PAMPA plate was placed on a pIon Gut-Box™, a stirring apparatus that allows equilibrium to be reached quicker. Aqueous Boundary Layer of the pIon Gut-Box™ was set to 40 μm and the compounds stirred for 30 minutes. The UV spectrum (250 nm-500 nm) of the donor and the acceptor were read. The permeability coefficient was calculated using PAMPA evolution 96 command software (pION Inc., Woburn, Mass.) based on the whole spectrum measured from the reference plate, the donor plate, and the acceptor plate. All compounds were tested in triplicates.

DCN1-UBC12 interaction = DCN1-UBC12 interaction (Homo sapiens (Human), UniProt Q96GG9); test: biochemical; type: binding; conditions: for inhibition of the DCN1-UBC12NAc interaction: TR-FRET assay
physchem = conditions: aqueous buffer, kinetic from dmso stock
Description: Solubility assays were carried out on a Biomek FX lab automation workstation (Beckman Coulter, Inc., Fullerton, Calif.) using μSOL Evolution software (pION Inc., Woburn, Mass.). […] Compound stock (10 mM in DMSO, 10 μL) was added to 1-propanol (190 μL) to make a reference stock plate. […] Test compound stock (10 mM, 6 μL) was added to buffer (594 μL) in a 96-well storage plate and mixed. […] The suspension was then filtered through a 96-well filter plate (pION Inc., Woburn, Mass.). […] Calculation was carried out by μSOL Evolution software based on the AUC (area under curve) of UV spectrum of the sample plate and the reference plate. All compounds were tested in triplicate.

U-2 OS cells = test: Electron microscopy of compound treated cells; type: cell-based
[2] = target: Dcn1P-mediated co-E3 activity (Homo sapiens (Human), UniProt Q96GG9); test: Pulse-chase neddylation assay (NEDD8 transfer from UBC12 to CUL2CTD); type: biochemical; conditions: for inhibition of labeled NEDD8 transfer from UBC12 to CUL2CTD-RBX2: pulse-chase neddylation assay
Description: Compound inhibition of Dcn1^P-mediated co-E3 activity was monitored using pulse-chase assays to exclusively monitor effects of Nedd8 transfer to Cul2 without sensing earlier steps in the reaction. […] Load reactions were quenched by the addition of EDTA to 50 mM and incubated on ice for 5 minutes. Chase reactions involved dilution of the UBC12˜[^FAM]-Nedd8 thioester conjugate to 40 nM in 50 mM Tris, 50 mM NaCl, 50 mM EDTA, 0.5 mg/mL BSA, pH 6.8. […] Fluorescent gels were visualized by scanning on a Typhoon imager (GE).

HCC95 cancer cells = test: Cullin neddylation in cancer cells (cell lysis and western blot); type: cell-based
Description: Cell pellets harvested from a 6 well dish were resuspended in 30-40 μL of lysis buffer (50 mM Tris, 150 mM NaCl, 0.5% NP-40, 0.1% SDS, 6.5 M Urea, 2 mM 1,10-orthophenanthroline, 1× Halt Protease and Phosphatase inhibitor cocktail (ThermoFisher), 0.25 kU Universal Nuclease (ThermoFisher), pH 7.5). Cell pellet suspensions were incubated on ice for 25 minutes with occasional mixing by pipetting up and down. Lysates were cleared by centrifugation at 13 K rpm for 20 minutes and the supernatant was removed as total cell lysate sample. Protein concentration of the cell lysate was determined by BCA assay (Pierce) using BSA as a control. Cell lysates were diluted into 2×SDS-PAGE sample buffer such that 25 μg of total protein was loaded per well. […] Primary antibodies were prepared in blocking buffer and incubated with membranes overnight at 4° C. with rocking. Membranes were extensively washed in 1×TBS, 0.1% Tween-20. Secondary antibodies were prepared in blocking buffer according to the manufactures recommendations and incubated with membranes for 1 hour at room temperature. After extensive washing the membranes were developed with SuperSignal West Pico Chemiluminescent substrate (ThermoFisher) and developed by film exposure (HyBlot CL, Denville scientific).

HCC95 cells = test: Soft agar anchorage independent growth assay; type: cell-based; conditions: 10 μM
endosome maturation = test: Endosome maturation (LAMP1 positive vesicles) imaging; type: cell-based
[3] = Seven day spermatogenesis study; type: in vivo; conditions: for Weight: oral gavage, B.I.D.; for Motility / Sperm Count / Viability (%): oral gavage B.I.D.
[4] = preliminary experiment
in vivo = conditions: for concentration at 3 day / concentration at 7 day / concentration at 24.4 h / concentration at […] / concentration at 1 h: male; for concentration at 3 day: Day 3; for concentration at 7 day: Day 7
[5] = Table 10, R101 series, read-out: IC50 (μM) (TR-FRET)
[6] = Table 6, commercial compounds, read-out: TR-FRET IC50
[7] = Plasma Concentration (μM), 50 mg/kg
[8] = Plasma Concentration (μM), 100 mg/kg
[9] = Plasma Concentration, Repeat Dose (0 and 7.5 hr)
[10] = Plasma Concentration, Single Dose (0 hr)
[11] = Testis Concentration (μM), 50 mg/kg
[12] = Testis Concentration (μM), 100 mg/kg
[13] = Testis Concentration, Repeat Dose (0 and 7.5 hr)
[14] = Testis Concentration, Single Dose (0 hr)
[15] = Table 4, commercial compounds, read-out: TR-FRET IC50

DCN1-UBC12 interaction, sequence (Q96GG9 60-248 limits assumed): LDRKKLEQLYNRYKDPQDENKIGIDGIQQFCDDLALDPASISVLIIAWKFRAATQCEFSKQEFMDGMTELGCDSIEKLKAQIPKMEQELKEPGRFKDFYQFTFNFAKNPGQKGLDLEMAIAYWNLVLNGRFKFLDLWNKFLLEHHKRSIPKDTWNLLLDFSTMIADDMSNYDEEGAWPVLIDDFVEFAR
Dcn1P-mediated co-E3 activity, sequence (Q96GG9 whole entry, looked up): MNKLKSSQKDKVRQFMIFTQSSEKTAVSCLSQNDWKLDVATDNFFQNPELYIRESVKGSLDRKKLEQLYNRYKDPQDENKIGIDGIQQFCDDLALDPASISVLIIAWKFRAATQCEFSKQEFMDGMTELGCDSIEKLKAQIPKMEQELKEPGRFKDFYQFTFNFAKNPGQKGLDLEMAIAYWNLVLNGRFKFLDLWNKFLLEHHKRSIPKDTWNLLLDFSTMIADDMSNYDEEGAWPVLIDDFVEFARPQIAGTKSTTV
Dcn1P-mediated co-E3 activity, sequence (Q13617 whole entry partner, looked up): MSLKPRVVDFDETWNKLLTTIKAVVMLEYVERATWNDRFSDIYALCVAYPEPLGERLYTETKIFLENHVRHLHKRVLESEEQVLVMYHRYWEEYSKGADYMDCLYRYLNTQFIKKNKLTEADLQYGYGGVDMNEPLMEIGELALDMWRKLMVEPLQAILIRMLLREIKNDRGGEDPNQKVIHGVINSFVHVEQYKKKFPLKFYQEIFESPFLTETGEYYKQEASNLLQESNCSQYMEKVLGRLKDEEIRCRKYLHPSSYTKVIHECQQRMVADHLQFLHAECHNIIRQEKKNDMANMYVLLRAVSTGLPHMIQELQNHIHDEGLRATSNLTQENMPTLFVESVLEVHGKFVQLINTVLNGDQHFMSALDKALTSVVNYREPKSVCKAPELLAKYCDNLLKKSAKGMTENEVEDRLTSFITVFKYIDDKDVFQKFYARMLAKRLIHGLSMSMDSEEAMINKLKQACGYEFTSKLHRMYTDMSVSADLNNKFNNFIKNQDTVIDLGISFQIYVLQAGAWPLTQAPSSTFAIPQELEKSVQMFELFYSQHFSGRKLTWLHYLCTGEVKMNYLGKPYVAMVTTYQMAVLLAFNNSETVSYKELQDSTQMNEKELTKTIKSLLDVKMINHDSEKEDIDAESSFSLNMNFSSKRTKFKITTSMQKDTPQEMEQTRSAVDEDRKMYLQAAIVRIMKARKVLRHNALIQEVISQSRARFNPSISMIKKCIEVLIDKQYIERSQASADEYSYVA
Dcn1P-mediated co-E3 activity, sequence (Q9UBF6 whole entry partner, looked up): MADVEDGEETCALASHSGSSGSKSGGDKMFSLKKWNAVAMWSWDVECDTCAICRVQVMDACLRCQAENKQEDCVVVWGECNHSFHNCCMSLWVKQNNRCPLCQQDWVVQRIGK

O=C(Nc1cccc(C(F)(F)F)c1)N(Cc1ccccc1)C1CCN(Cc2ccc3c(c2)OCO3)CC1 [compound 26]
Pampa (×10^−6 cm/s) [1]: >2200 ×10^−6 cm/s | IC50 (DCN1-UBC12 interaction; [5]): 7 µM | solubility kinetic (physchem): < 0.1 µM

O=C(Nc1cccc(C(F)(F)F)c1)N(Cc1ccccc1)C1CCN(Cc2ccc3c(c2)OCCO3)CC1 [compound 27]
Pampa (×10^−6 cm/s) [1]: >2200 ×10^−6 cm/s | IC50 (DCN1-UBC12 interaction; [5]): 7.3 µM | solubility kinetic (physchem): 1 ± 1.3 µM (≈ 0.526 µg/mL)

C=CC(=O)NCc1cccc(CN(C(=O)Nc2cccc(C(F)(F)F)c2)C2CCN(C(C)CCC)CC2)c1 (stereo not shown) [A3]
vacuolar structures by electron microscopy (U-2 OS cells): presence of large vacuolar structures | IC50 (DCN1-UBC12 interaction; read-out: TR-FRET IC50): 0.018 µM

O=C(Nc1cccc(C(F)(F)F)c1)N(Cc1ccccc1)C1CCN(Cc2ccc(F)cc2)CC1 [compound 24]
Pampa (×10^−6 cm/s) [1]: >2200 ×10^−6 cm/s | IC50 (DCN1-UBC12 interaction; [5]): 9.2 µM | solubility kinetic (physchem): 0.9 ± 0.1 µM (≈ 0.437 µg/mL)

Cc1cccc(C(=O)NC2C(=O)Nc3c(c(C)nn3-c3ccccc3)C2c2ccc(F)cc2)c1 (stereo not shown) [F1]
inhibition of labeled NEDD8 transfer from UBC12 to CUL2CTD-RBX2 [2]: dose-dependent inhibition

O=C(Nc1cccc(C(F)(F)F)c1)N(Cc1ccccc1)C1CCN(Cc2cccnc2)CC1 [compound 23]
Pampa (×10^−6 cm/s) [1]: >2200 ×10^−6 cm/s | IC50 (DCN1-UBC12 interaction; [5]): 12 µM | solubility kinetic (physchem): 30 ± 1.1 µM (≈ 14.1 µg/mL)

C=CC(=O)Nc1cccc(CN(C(=O)Nc2cccc(C(F)(F)F)c2)C2CCN(C(C)CCC)CC2)c1 (stereo not shown) [A18]
levels of neddylated Cullins / cullin neddylation (HCC95 cancer cells): reduce the levels of neddylated Cullins; also recorded: selectively inhibit cullin neddylation | IC50 (DCN1-UBC12 interaction; read-out: TR-FRET IC50): 0.111 µM | anchorage independent growth (HCC95 cells): inhibit the anchorage independent growth of HCC95 cells

CCCC(C)N1CCC(N(Cc2ccccc2)C(=O)Nc2cccc(C(F)(F)F)c2)CC1 (stereo not shown) [A15, 1-Benzyl-1-(1-(Pentan-2-yl)Piperidin-4-yl)-3-(3-(Trifluoromethyl)Phenyl)Urea]
vacuolar structures by electron microscopy (U-2 OS cells): presence of large vacuolar structures | effect on endosome maturation (endosome maturation; 10 μM on cells): affect endosome maturation

CCOc1cc(CN2CCC(N(Cc3ccccc3)C(=O)Nc3cccc(C(F)(F)F)c3)CC2)cc(Cl)c1O [compound 25]
Pampa (×10^−6 cm/s) [1]: 110 ± 190 ×10^−6 cm/s | solubility kinetic (physchem): 0.4 ± 0.1 µM (≈ 0.225 µg/mL)

CCCN1CCN(C(=O)c2cnn(-c3nccc(-c4cccs4)n3)c2C(C)C)CC1 [E1, (5-Isopropyl-1-(4-(Thiophen-2-yl)Pyrimidin-2-yl)-1H-Pyrazol-4-yl)(4-Propylpiperazin-1-yl)Methanone]
inhibition of the DCN1-UBC12NAc interaction (DCN1-UBC12 interaction): dose-dependent inhibition | IC50 (DCN1-UBC12 interaction; [6]): 1.07 µM | inhibition of labeled NEDD8 transfer from UBC12 to CUL2CTD-RBX2 [2]: dose-dependent inhibition

CCCCN1CCC(N(Cc2ccccc2)C(=O)Nc2ccc(Cl)c(Cl)c2)CC1 [A7]
Weight ([3]; 50 mpk): 146.3 ± 27.7 mg | Weight ([3]; 100 mpk): 150.1 ± 18.9 mg | Motility ([3]; animal 50 mpk-1): Stationary | Sperm Count ([3]; animal 50 mpk-1): Low | Viability (%) ([3]; animal 50 mpk-1): <20% | Motility ([3]; animal 50 mpk-2): Stationary | Sperm Count ([3]; animal 50 mpk-2): Low | Viability (%) ([3]; animal 50 mpk-2): 0% | Motility ([3]; animal 50 mpk-3): Good, erratic | Sperm Count ([3]; animal 50 mpk-3): Normal | Viability (%) ([3]; animal 50 mpk-3): >50% | Motility ([3]; animal 100 mpk-1): No movement | Sperm Count ([3]; animal 100 mpk-1): Low | Viability (%) ([3]; animal 100 mpk-1): <10% | Motility ([3]; animal 100 mpk-2): Erratic | Sperm Count ([3]; animal 100 mpk-2): Low | Viability (%) ([3]; animal 100 mpk-2): <5% | Motility ([3]; animal 100 mpk-3): Limited | Sperm Count ([3]; animal 100 mpk-3): Low | Viability (%) ([3]; animal 100 mpk-3): <10% | levels of neddylated Cullins / cullin neddylation (HCC95 cancer cells): reduce the levels of neddylated Cullins; also recorded: selectively inhibit cullin neddylation | maximum serum concentration [4]: 1.5 to 3 µM | vacuolar structures by electron microscopy (U-2 OS cells): presence of large vacuolar structures | half-life (in vivo): 4 to 5 h | concentration at 3 day (in vivo; [7]): 2.7 ± 2.4 µM | concentration at 7 day (in vivo; [7]): 1.7 ± 1.2 µM | concentration at 3 day (in vivo; [8]): 2.4 ± 1.2 µM | concentration at 7 day (in vivo; [8]): 1.4 ± 0.6 µM | concentration at 24.4 h (in vivo; [9]): 0.62 ± 0.16 µM | concentration at […] (in vivo; [9]): 4.8 ± 1.3 µM | concentration at 1 h (in vivo; [10]): 3.7 ± 0.95 µM | concentration at 24.4 h (in vivo; [10]): 0.47 ± 0.32 µM | concentration at 3 day (in vivo; [11]): 11.6 ± 3.4 µM | concentration at 7 day (in vivo; [11]): 8.25 ± 4.1 µM | concentration at 3 day (in vivo; [12]): 25.9 ± 11.1 µM | concentration at 7 day (in vivo; [12]): 31.2 ± 12.8 µM | concentration at 24.4 h (in vivo; [13]): 6.2 ± 5.3 µM | concentration at […] (in vivo; [13]): 16.7 ± 3.1 µM | concentration at 1 h (in vivo; [14]): 2.1 ± 0.74 µM | concentration at 24.4 h (in vivo; [14]): 4.4 ± 3.3 µM | anchorage independent growth (HCC95 cells): inhibit the anchorage independent growth of HCC95 cells

O=C(Nc1cccc(C(F)(F)F)c1)NC1CCN(Cc2ccccc2)CC1 [B7, 1-(1-Benzylpiperidin-4-yl)-3-(3-(Trifluoromethyl)Phenyl)Urea]
inhibition of the DCN1-UBC12NAc interaction (DCN1-UBC12 interaction): dose-dependent inhibition | inhibition of DCN1 dependent neddylation ([2]; dependence on presence of DCN1): specifically inhibits DCN1 dependent nedylation | inhibition of labeled NEDD8 transfer from UBC12 to CUL2CTD-RBX2 [2]: dose-dependent inhibition

CCCCN1CCC(N(Cc2ccc3c(c2)OCO3)C(=O)Nc2cc(F)cc(C(F)(F)F)c2)CC1 [A83]
effect on endosome maturation (endosome maturation; 3 μM on cells): affect endosome maturation | IC50 (DCN1-UBC12 interaction; read-out: TR-FRET IC50): 0.901 µM

O=C(Nc1ccc(CN2CCCC2)cc1)Nc1cccc(C(F)(F)F)c1 [B105]
IC50 (DCN1-UBC12 interaction; read-out: TR-FRET IC50): > 71.3 µM

CCC1CN(C(=O)N2CCC(C(=O)Nc3cccc(OC)c3)CC2)c2ccccc2O1 (stereo not shown) [C54]
IC50 (DCN1-UBC12 interaction; [15]): > 67.6 µM

O=C(Nc1cccc(C(F)(F)F)c1)NC1CCN(Cc2ccc(F)cc2)CC1 [A172, 1-(1-(4-Fluorobenzyl)Piperidin-4-yl)-3-(3-(Trifluoromethyl)Phenyl)Urea]
IC50 (DCN1-UBC12 interaction; read-out: TR-FRET IC50): 12.9 µM

Cc1cnc(-n2ncc(C(=O)N3CCN(C)CC3)c2C2CC2)nc1-c1cccs1 [E55]
IC50 (DCN1-UBC12 interaction; [6]): > 67.6 µM

O=C(Nc1ccccc1Br)C1CCN(C(=O)c2ccccc2Cl)CC1 [C17]
IC50 (DCN1-UBC12 interaction; [15]): > 67.6 µM

CCCC(C)N1CCC(N(Cc2ccccc2)C(=O)Nc2c(C)cc(Br)cc2C)CC1 (stereo not shown) [A265]
IC50 (DCN1-UBC12 interaction; read-out: TR-FRET IC50): > 65.7 µM

CCCC(C)N1CCC(N(Cc2ccccc2)C(=O)Nc2ccc(-c3ccc(OC)cc3)cc2)CC1 (stereo not shown) [A164]
IC50 (DCN1-UBC12 interaction; read-out: TR-FRET IC50): 8.9 µM

C=CC(=O)NCc1cccc(CN(C(=O)Nc2cccc(C(F)(F)F)c2)C2CCN(C(C)CCC)CC2)c1 (stereo not shown) [drawing 845]
IC50 (DCN1-UBC12 interaction; read-out: TR-FRET IC50): 0.018 µM

CCCC(C)N1CCC(N(Cc2ccccc2)C(=O)Nc2ccc(C)c(C)c2)CC1 (stereo not shown) [A31]
IC50 (DCN1-UBC12 interaction; read-out: TR-FRET IC50): 0.184 µM

CC1CC(N(C)C(=O)Nc2ccccn2)CCN1Cc1ccccc1 (stereo not shown) [B106]
IC50 (DCN1-UBC12 interaction; read-out: TR-FRET IC50): > 71.5 µM

CCCc1ccc(NC(=O)N(Cc2ccccc2)C2CCN(C(C)CCC)CC2)cc1 (stereo not shown) [A66]
IC50 (DCN1-UBC12 interaction; read-out: TR-FRET IC50): 0.47 µM
